Source: the supplement of paper PMC10733146

Tests used:
Assay in all cases: viability relative to DMSO control (fraction); higher = less drug effect (more viable cells)
Conditions in all cases: 48 h
[1] = tested on: primary AML patient cells (S055)
Procedure, shortened: (§1)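 Cells were incubated for 48 h at 37 °C and 5% CO2 in RPMI-1640 with penicillin/streptomycin, L-glutamine and human serum, at 4 × 10^4 cells per well in 384-well plates with compounds pre-plated at five concentrations, one well each. These were primary mononuclear tumour cells, fresh or cryopreserved, Ficoll-isolated from blood or bone marrow or obtained from processed lymph node. Viability values are CellTiter-Glo luminescence relative to the median of 16 inner DMSO wells.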

[2] = tested on: primary AML patient cells (S072)
Procedure, shortened: as §1

[3] = tested on: primary MCL patient cells (S068)
Procedure, shortened: as §1

[4] = tested on: primary BL patient cells (S005)
Procedure, shortened: as §1

[5] = tested on: primary AML patient cells (S056)
Procedure, shortened: as §1

[6] = tested on: primary FL patient cells (S087)
Procedure, shortened: as §1

[7] = tested on: primary ALL patient cells (S048)
Procedure, shortened: as §1

[8] = tested on: primary AML patient cells (S009)
Procedure, shortened: as §1

[9] = tested on: primary ALL patient cells (S088)
Procedure, shortened: as §1

[10] = tested on: primary FL patient cells (S022)
Procedure, shortened: as §1

[11] = tested on: primary B-PLL patient cells (S016)
Procedure, shortened: as §1

[12] = tested on: primary AML patient cells (S060)
Procedure, shortened: as §1

[13] = tested on: primary CLL patient cells (S031)
Procedure, shortened: as §1

[14] = tested on: primary T-PLL patient cells (S008)
Procedure, shortened: as §1

[15] = tested on: primary MCL patient cells (S041)
Procedure, shortened: as §1

[16] = tested on: primary AML patient cells (S071)
Procedure, shortened: as §1

[17] = tested on: primary MCL patient cells (S053)
Procedure, shortened: as §1

[18] = tested on: primary DLBCL patient cells (S082)
Procedure, shortened: as §1

[19] = tested on: primary MCL patient cells (S063)
Procedure, shortened: as §1

[20] = tested on: primary AML patient cells (S079)
Procedure, shortened: as §1

In the case of `Nc1ncn([C@@H]2O[C@H](CO)[C@@H](O)[C@H]2O)c(=O)n1` [Azacytidine (Vidaza)], the viability ([1]; 0.032 µM) was 1.04, the viability ([1]; 0.16 µM) was 1.05 and the viability ([1]; 0.8 µM) was 0.806. For the same molecule, the viability ([1]; 4 µM) was 0.233, the viability ([1]; 20 µM) was 0.0906 and the viability ([2]; 0.032 µM) was 1.03. For the same molecule, the viability ([2]; 0.16 µM) was 1.02, the viability ([2]; 0.8 µM) was 0.958 and the viability ([2]; 4 µM) was 0.83. It also gave a viability ([2]; 20 µM) of 0.652, a viability ([3]; 0.032 µM) of 0.969 and a viability ([3]; 0.16 µM) of 1.04. The viability ([3]; 0.8 µM) was 0.798, the viability ([3]; 4 µM) was 0.325 and the viability ([3]; 20 µM) was 0.232. It also gave a viability ([4]; 0.032 µM) of 0.847, a viability ([4]; 0.16 µM) of 0.862 and a viability ([4]; 0.8 µM) of 0.841. For the same molecule, the viability ([4]; 4 µM) was 0.766, the viability ([4]; 20 µM) was 0.708 and the viability ([5]; 0.032 µM) was 0.987. The viability ([5]; 0.16 µM) was 0.997, the viability ([5]; 0.8 µM) was 0.467 and the viability ([5]; 4 µM) was 0.0878. It also gave a viability ([5]; 20 µM) of 0.078, a viability ([6]; 0.032 µM) of 1.1 and a viability ([6]; 0.16 µM) of 1.06. It also gave a viability ([6]; 0.8 µM) of 0.997, a viability ([6]; 4 µM) of 0.906 and a viability ([6]; 20 µM) of 0.678. For the same molecule, the viability ([7]; 0.032 µM) was 0.926, the viability ([7]; 0.16 µM) was 0.989 and the viability ([7]; 0.8 µM) was 0.695. It also gave a viability ([7]; 4 µM) of 0.239, a viability ([7]; 20 µM) of 0.102 and a viability ([8]; 0.032 µM) of 0.943. For the same molecule, the viability ([8]; 0.16 µM) was 0.905, the viability ([8]; 0.8 µM) was 0.916 and the viability ([8]; 4 µM) was 0.695. The viability ([8]; 20 µM) was 0.468, the viability ([9]; 0.032 µM) was 0.958 and the viability ([9]; 0.16 µM) was 1.06. The viability ([9]; 0.8 µM) was 0.934, the viability ([9]; 4 µM) was 0.552 and the viability ([9]; 20 µM) was 0.233. It also gave a viability ([10]; 0.032 µM) of 1.03, a viability ([10]; 0.16 µM) of 1 and a viability ([10]; 0.8 µM) of 1.01. For the same molecule, the viability ([10]; 4 µM) was 0.949, the viability ([10]; 20 µM) was 0.624 and the viability ([11]; 0.032 µM) was 1.03. For the same molecule, the viability ([11]; 0.16 µM) was 1.06, the viability ([11]; 0.8 µM) was 0.912 and the viability ([11]; 4 µM) was 0.142. It also gave a viability ([11]; 20 µM) of 0.0474, a viability ([12]; 0.032 µM) of 1 and a viability ([12]; 0.16 µM) of 1.02. The viability ([12]; 0.8 µM) was 1.02, the viability ([12]; 4 µM) was 1.02 and the viability ([12]; 20 µM) was 0.923. The viability ([13]; 0.032 µM) was 1.08, the viability ([13]; 0.16 µM) was 1.01 and the viability ([13]; 0.8 µM) was 0.989. The viability ([13]; 4 µM) was 0.539, the viability ([13]; 20 µM) was 0.0698 and the viability ([14]; 0.032 µM) was 0.965. The viability ([14]; 0.16 µM) was 1.02, the viability ([14]; 0.8 µM) was 0.988 and the viability ([14]; 4 µM) was 0.704. It also gave a viability ([14]; 20 µM) of 0.289, a viability ([15]; 0.032 µM) of 1.04 and a viability ([15]; 0.16 µM) of 1.03. For the same molecule, the viability ([15]; 0.8 µM) was 0.812, the viability ([15]; 4 µM) was 0.151 and the viability ([15]; 20 µM) was 0.0515. It also gave a viability ([16]; 0.032 µM) of 0.968, a viability ([16]; 0.16 µM) of 0.985 and a viability ([16]; 0.8 µM) of 0.695. It also gave a viability ([16]; 4 µM) of 0.29, a viability ([16]; 20 µM) of 0.131 and a viability ([17]; 0.032 µM) of 0.924. It also gave a viability ([17]; 0.16 µM) of 0.999, a viability ([17]; 0.8 µM) of 0.587 and a viability ([17]; 4 µM) of 0.351. For the same molecule, the viability ([17]; 20 µM) was 0.289, the viability ([18]; 0.032 µM) was 0.969 and the viability ([18]; 0.16 µM) was 1.08. It also gave a viability ([18]; 0.8 µM) of 1.07, a viability ([18]; 4 µM) of 1.04 and a viability ([18]; 20 µM) of 0.26. The viability ([19]; 0.032 µM) was 1.04, the viability ([19]; 0.16 µM) was 1.07 and the viability ([19]; 0.8 µM) was 1.03. For the same molecule, the viability ([19]; 4 µM) was 0.839, the viability ([19]; 20 µM) was 0.173 and the viability ([20]; 0.032 µM) was 0.972. The viability ([20]; 0.16 µM) was 1.09, the viability ([20]; 0.8 µM) was 0.942 and the viability ([20]; 4 µM) was 0.671. For the same molecule, the viability ([20]; 20 µM) was 0.304.
